These are literature values, as cited in patent US9271959B2, “Bicyclic tetrahydropyrrole compounds” (Laboratorios del Dr. Esteve, S.A., priority 2006, dated 2016).

The target in one data set is sigma 1 (σ-1) site (Homo sapiens, UniProt Q99720).
The next data set has as its target sigma (σ-2) site (Homo sapiens, UniProt Q5BJF2).

sigma (σ-2) site, sequence (Q5BJF2 whole entry): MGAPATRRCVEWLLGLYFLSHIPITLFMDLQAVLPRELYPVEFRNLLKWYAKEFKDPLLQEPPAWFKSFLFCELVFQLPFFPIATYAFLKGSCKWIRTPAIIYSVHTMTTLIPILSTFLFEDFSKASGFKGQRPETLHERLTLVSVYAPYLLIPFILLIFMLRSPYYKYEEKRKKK
sigma 1 (σ-1) site, sequence (Q99720 whole entry): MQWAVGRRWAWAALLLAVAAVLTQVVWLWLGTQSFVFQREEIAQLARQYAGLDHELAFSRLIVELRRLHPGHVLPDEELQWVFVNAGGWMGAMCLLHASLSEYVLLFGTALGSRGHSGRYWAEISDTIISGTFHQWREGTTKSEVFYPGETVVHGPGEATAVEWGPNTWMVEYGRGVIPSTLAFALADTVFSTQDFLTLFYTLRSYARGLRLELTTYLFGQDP

With SKF 10047, the “affinity for the sigma 1 (σ-1) site” value at sigma 1 (σ-1) site is “nanomolar affinity”. Moreover, the “affinity for the sigma (σ-2) site” value on sigma (σ-2) site was “micromolar affinity”.
